We go through five compounds from patent US6949648B2, “Condensed pyrazole derivatives, process for producing the same and use thereof” (Takeda Pharmaceutical Company Limited, priority 2000, dated 2005).

In one series the target is T1, human COX-2 (Homo sapiens, UniProt P35354).
T1 construct: made in house; host or cells: Sf-21 insect cells (recombinant baculovirus BAC-COX2, pFASTBAC1); microsome fraction
T1 sequence (P35354 18-604): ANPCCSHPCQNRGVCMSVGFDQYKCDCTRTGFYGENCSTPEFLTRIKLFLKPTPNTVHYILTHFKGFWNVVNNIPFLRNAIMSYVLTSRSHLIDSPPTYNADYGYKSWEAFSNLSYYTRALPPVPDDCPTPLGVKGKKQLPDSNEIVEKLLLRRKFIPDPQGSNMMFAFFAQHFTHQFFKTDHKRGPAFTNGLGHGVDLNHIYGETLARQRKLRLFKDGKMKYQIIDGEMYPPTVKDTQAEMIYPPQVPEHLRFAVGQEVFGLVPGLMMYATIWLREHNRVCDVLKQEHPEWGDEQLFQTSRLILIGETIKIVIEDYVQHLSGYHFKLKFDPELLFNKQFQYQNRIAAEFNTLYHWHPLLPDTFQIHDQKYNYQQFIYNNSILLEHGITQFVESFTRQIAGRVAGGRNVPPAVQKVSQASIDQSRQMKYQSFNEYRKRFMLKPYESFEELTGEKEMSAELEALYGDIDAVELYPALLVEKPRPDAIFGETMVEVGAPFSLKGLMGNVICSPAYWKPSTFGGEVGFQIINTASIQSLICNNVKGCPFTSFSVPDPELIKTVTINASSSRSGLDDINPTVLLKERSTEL
The series can be described thus: Determination of COX-2 inhibitory activity (microsome fraction, chemiluminescence). In kind it is biochemical. The conditions noted are these: microsome fraction 20 μg, arachidonic acid, 37° C. 25 minutes preincubation; read-out: Repression rate IC50 (μM) COX-2. As to the method:
A 1.8 kb DNA fragment containing human COX-2 cDNA (Proc. Natl. Acad. Sci. U.S.A., vol. 89 (16), p. 7384-7388 (1992)) prepared by the PCR method was inserted into plasmid pFASTBAC1 (CIBCOBRAL) to obtain a plasmid pFBCOX2.
Using the plasmid pFBCOX2 and BAC-TO-BAC Baculovirus Expression System (GIBCOBRAL), a virus stock BAC-COX2 of the recombinant baculovirus was prepared.
Sf-21 cells were inoculated in 125 mL of LSf-900 II SFM medium (GIBCOBRAL) at a concentration of 1×10^6 cells/mL, and the medium was incubated at 27° C. for 24 hours. 0.75 mL of the virus stock BAC-COX2 of the recombinant baculovirus was added thereto, and was incubated further for 72 hours. The cells were separated from the medium by centrifugation (3000 rpm, 10 min), and washed with PBS twice. The cells were suspended in 10 mL of a Lysis buffer (0.1M Tris-HCl (pH 7.4), 5 mM EDTA), and were treated with a homogenizer (POLYTRON), three times at 20000 rpm for 20 seconds so that the cells were crushed. The supernatant thus obtained after centrifugation (2000 rpm, 10 minutes) was further centrifuged (40000 rpm, 45 minutes) to obtain a precipitate, which was resuspended in a Lysis buffer (0.1M Tris-HCl (pH 7.4), 5 mM EDTA), and the suspension was stored at −80° C.
Determination of COX-1 and COX-2 Inhibitory Activities
To a mixture of 20 μL of a reaction buffer previously concentrated 10 times (1M Tris-HCl (pH8.0), 50 mM EDTA, 1.0% Tween 20, 50 mM luminol, 100 μM hematin), 20 μL of the microsome fractions (COX-1: 40 μg, COX-2: 20 μg), and 55 μL of distilled water, a sample compound dissolved in DMF (5 μL) was added, and the mixture was left at 37° C. for 25 minutes. The reaction was started by the addition of 20 μM arachidonic acid (100 μL), and chemiluminescence amount during the 10-second period after the addition of arachidonic acid was determined by the use of Lumistar (BMG Lab technologies, GmbH). The inhibition rate was calculated, regarding that the enzyme activity when DMF ([…]) was added was 100%, and the enzyme activity when 4 mM flurbiprofen (5 μL) was added was 0%.

The subject of series [1] is carrageenin edema of right hind limb plantar. The series can be described thus: Anti-inflammatory activity, carrageenin edema method. In kind it is in vivo, SD-rats. As to conditions: po. In short, it runs like this: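 Male 6-week-old SD rats (n=6/group) dosed orally with sample, then 5 mL water; controls got solvent only. One hour later, 0.05 mL 1% carrageenin was injected subcutaneously into the right hind paw. Paw volume measured before and 2 and 3 h after injection; % inhibition versus control calculated.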

Another series relates to yeast-induced pyrexia. The series can be described thus: Antipyretic activity in yeast-induced pyrexia. The series is classed as in vivo, SD rats. The conditions noted are these: 10 mg/kg orally; maximum difference in body temperature vs control over 6 hours. The protocol:
Antipyretic Activity in Yeast-Induced Pyrexia Antipyretic activity was determined using male SD origin male-rats (7 weeks old, CLEA Japan, 1 group: n=6), according to the method of winter et. al. (J. Pharmacol. Exp. Ther., vol. 138, p. 405, 1963). Before 16 hours from measurement of body temperature, a suspension of 15% yeast in saline was injected subcutaneously (10 mL/kg, b.w.) into the rats to induce fever, and simultaneously supply of food was terminated while water was made available all the time. Each of the rats was raised separately. After 16 hours from the yeast shot, a thermistor terminal was inserted at an about 4 cm depth into rectum every hour, and the body temperatures after 30 seconds were recorded. After 18 hours, rats developing fevers consistently were selected, and a sample was orally administered to the rats (5 mL/kg, b.w.), while to the control, only the solvent was administered. After the administration, body temperatures were measured every hour for a period of 6 hours, and the maximum difference in body temperature between the rats in the sample group and in the control group were determined as Δ (° C.).

Series [2] concerns mucosa of small intestine. The series can be described thus: Disorder of mucosa of small intestine. In kind it is in vivo, SD rats. As to conditions: 300 mg/kg orally, freely fed rats, 6 hours after dosing. The protocol: Disorder of Mucosa of Small Intestine Male SD origin male-rats (7 weeks old, CLEA Japan) were used. To the rats freely fed, samples were administered orally (5 mL/kg, b.w.). After 5.5 hours from the administration, Evan's Blue (0.5% Evan's Blue/saline) was injected (1 mL/rat) intravenously under no anesthesia. After 30 minutes from the shot, the intestine was removed by celiotomy and the area thereof facing mesentery was cut open. After removal of intestinal content, the spots in the intestine dyed by Evan's Blue were measured under a stereomicroscope, and the total length (mm) of the spots was determined by a counter and recorded.

[3] abbreviates: 10 mg/kg orally, 2 hr after carrageenin injection, read-out: Repression rate (%) Dosage 10 mg/kg 2 hr later.
Where [4] appears, read: 10 mg/kg orally, 3 hr after carrageenin injection, read-out: Repression rate (%) Dosage 10 mg/kg 3 hr later.

Read-outs that look alike come from different tables or passages of the source. Marks after values point to notes of the source that are not given here.

`O=c1c2ccccc2[nH]c2c1cnn2-c1ccccn1` [Example 2-159, 1-(2-Pyridinyl)-1,9-dihydro-4H-pyrazolo[3,4-b]quinolin-4-one] had a melting point of 240 to 242 °C. The IC50 on human COX-2 was found to be 1.37 µM. For the same compound, the inhibition in vivo at 10 mg/kg in series [1] (setting [3]) was 50%. For the same compound, the inhibition in vivo at 10 mg/kg in series [1] (setting [4]) amounted to 39%. The “Δ (° C.) Dosage 10 mg/kg” value in the series on yeast-induced pyrexia is recorded as 1.8** ° C. The “Total length of dyed spots (mm)” value in series [2] is given as 0 (300 mg/kg) mm.
For the compound `Cc1nn(-c2ccccn2)c2[nH]c3cccc(F)c3c(=O)c12.Cl` [Example 2-79, 5-Fluoro-3-methyl-1-(2-pyridinyl)-1,9-dihydro-4H-pyrazolo[3,4-b]quinolin-4-one hydrochloride], the melting point is more than 380 °C. The IC50 at human COX-2 was determined as 3.7 µM. For the same compound, the inhibition in vivo at 10 mg/kg in series [1] (2 h, read-out: Repression rate (%) Dosage 10 mg/kg 2 hr later) came out at 37%. For the same compound, the inhibition in vivo at 10 mg/kg in series [1] (3 h, read-out: Repression rate (%) Dosage 10 mg/kg 3 hr later) stood at 33%. Further, the “Δ (° C.) Dosage 10 mg/kg” value in the series with yeast-induced pyrexia is 1.4** ° C. In addition, the “Total length of dyed spots (mm)” value in series [2] is 0 (300 mg/kg) mm.
As to `Cc1nn(-c2ccccn2)c2nc3ccccc3c(OC3CCCC3)c12` [Example 2-21, 4-Cyclopentyloxy-3-methyl-1-(2-pyridinyl)-1H-pyrazolo[3,4-b]quinoline], the IC50 on human COX-2 came out at 86 µM. The figures for the inhibition in vivo at 10 mg/kg in series [1] (setting [3]) and in series [1] (setting [4]) were 52% and 45%, respectively. Moreover, the “Δ (° C.) Dosage 10 mg/kg” value with yeast-induced pyrexia is reported as 1.8** ° C.
Take `CCCNc1c2ccccc2nc2c1c(C)nn2-c1ccccn1` [Example 2-6, N-[3-Methyl-1-(2-pyridinyl)-1H-pyrazolo[3,4-b]quinolin-4-yl]-N-propylamine]: the melting point was in the range of 121 to 122 °C. Moreover, at human COX-2, the IC50 turned out to be 65.1 µM. Besides, the inhibition in vivo at 10 mg/kg in series [1] (setting [3]) turned out to be 43%. The inhibition in vivo at 10 mg/kg in series [1] (setting [4]) stood at 35%. Further, in the series with yeast-induced pyrexia, the “Δ (° C.) Dosage 10 mg/kg” value is reported as 0.8** ° C.
`CCCOc1c2ccccc2nc2c1c(C)nn2-c1ccccn1` [Example 2-17, 3-Methyl-4-propoxy-1-(2-pyridinyl)-1H-pyrazolo[3,4-b]quinoline]: at human COX-2, the IC50 came out at 49.2 µM. The figures for the inhibition in vivo at 10 mg/kg in series [1] (setting [3]) and in series [1] (setting [4]) were 45% and 37%, respectively. For the same compound, the “Δ (° C.) Dosage 10 mg/kg” value in the series with yeast-induced pyrexia is 1.5** ° C. Besides, the “Total length of dyed spots (mm)” value in series [2] is listed as 0 (300 mg/kg) mm.
